Data taken from patent US20250215105A1, “ANTI-CD39 ANTIBODY” (BrightPath Biotherapeutics Co., Ltd., priority 2022, published 2025).

Assays:
[1] = test system: T cells in healthy human PBMCs; assay: effects on T cells in cultured healthy PBMCs (cell type analysis, Treg removal, cytotoxic T cell induction); assay type: cell-based; settings: healthy PBMCs cultured with antibody for 5 days
Description: Purchased healthy human PBMCs (33000-10, Wako Pure Chemicals) were seeded at 5×10^5 cells/well in a 96 well U-bottom plate and cultured in the presence of 100 IU/mL IL-2 (87-890, NIPRO) and 20 ng/mL IL-7 (200-07, PeproTech) for 5 or 6 days to induce Tregs. The medium was washed out and the cells were cultured in the presence of CMV peptide A02 (TS-0010-1c, MBL), 10 IU/mL IL-2, and 20 ng/mL IL-7 for 11 days to induce antigen-specific cytotoxic T cells. The medium used was RPMI-1640 (189-0202, Wako Pure Chemicals) supplemented with 10% Human Serum AB (100-512, H46X00K, Gemini Bio), 1 mM penicillin streptomycin (09367-34, Nacalai Tesque), 1 mM sodium pyruvate (11360070, Gibco), 10 mM HEPES (17557-9, Nacalai Tesque), 1% GlutaMAX (35050061, Thermo Fisher), and 0.01 mM 2-mercaptoethanol (21438-82, Nacalai Tesque).
FACSVerse (BD) was used for various cell type analyses. Cells were counted using CountBright™ Absolute Counting Beads (C36950, Invitrogen). GraphPad Prism 9.2.0 was used for data analysis.
Substantially the same method as described in the Section 21.1 above was used to check a change in the percentage of various CD39^hi-expressing T cells by each glycan-modified anti-CD39 antibody.

activated Tregs = assay: binding to activated Tregs (FACS); design: species or system human; settings: 10 μg/mL
Description: Purchased healthy human PBMCs (Wako Pure Chemicals, 33000-10M) were seeded at 2×10^5 cells/well in a 96 well U-bottom plate and cultured in the presence of 10 IU/mL IL-2 (NIPRO, 87-890) and 20 ng/mL IL-7 (PeproTech, 200-07) for 6 days. After 6 days, all the cells were collected and the Treg population was isolated using a CD4^+CD25^+CD127^dim/− Regulatory T Cell Isolation Kit II, human (Miltenyi, 130-094-775). Isolated Tregs were seeded at 2×10^4 cells/well in ab96 well U-bottom plate and stimulated for 6 days in the presence of 6×10^5 Dynabeads Human T-Activator CD3/CD28 (Gibco, DB11132-D), 10 IU/mL IL-2, and 20 ng/mL IL-7. The medium used was RPMI (Wako Pure Chemicals, 189-02025) supplemented with 10% Human Serum AB (Gemini Bio, 100-512, H46X00K), 1 mM penicillin streptomycin (Nacalai Tesque, 09367-34), 1 mM sodium pyruvate (Gibco, 11360070), 10 mM HEPES (Nacalai Tesque, 17557-94), GlutaMAX (Thermo Fisher, 35050061). 11360070), 10 mM HEPES (Nacalai Tesque, 17557-94), and GlutaMAX (Thermo Fisher, 35050061). After 6 days, Tregs were collected and analyzed for binding of each test antibody by using a FACSVerse. GraphPad Prism 9.2.0 was used for data analysis.

[2] = test system: A375 (malignant melanoma cancer cell line); assay: cancer cell growth inhibition test with Treg-removed PBMCs; assay type: cell-based, human; settings: PBMCs pre-treated with 10 μg/ml antibody for 5 days, co-culture 5 days
Description: Purchased healthy human PBMCs (Wako Pure Chemicals, 33000-10M) were seeded at 5×10^5 cells/well in a 96 well U-bottom plate and cultured in the presence of 100 IU/mL IL-2 (NIPRO, 87-890), 20 ng/mL IL-7 (PeproTech, 200-07), and each test antibody at 10 μg/ml for 5 days. Then, 15,000 cells/well of A375 (malignant melanoma cancer cell line) overexpressing CMV antigen and RFP were mixed with 45,000 cells/well of PBMCs prepared after 5 days of culture, and the mixture was co-cultured at 37° C. and 5% CO2 for 5 days. At this time, the medium used was RPMI-1640 (189-0202, Wako Pure Chemicals) supplemented with 10% Human Serum AB (100-512, H46X00K, Gemini Bio), 1 mM penicillin streptomycin (09367-34, Nacalai Tesque), 1 mM sodium pyruvate (11360070, Gibco), 10 mM HEPES (17557-9, Nacalai Tesque), 1% GlutaMAX (35050061, Thermo Fisher), and 0.01 mM 2-mercaptoethanol (21438-82, Nacalai Tesque). The number of A375 cells was then determined by measuring the fluorescence value of RFP while using a Varioskan LUX multimode microplate reader (Thermo Fisher Scientific). GraphPad Prism 9.2.0 was used for data analysis.

[3] = test system: human multiple myeloma-derived cell line MOLP-8; settings: day 24, last day of the study
Description: The human multiple myeloma-derived cell line MOLP-8 (DMSZ, ACC569) was subcutaneously transplanted (at 5×10^6 cells/mouse) into the right abdomen of each SCID mouse (C.B-17/Icr-scid/scidJcl, female, 7-week-old). On day 10 after transplantation, the mice were divided into groups based on tumor volume. Each antibody was administered in the doses listed in Table 3 twice a week for a total of seven doses starting on the day of grouping. Doxorubicin was administered twice a week for a total of 5 doses, starting 7 days after the grouping date. The tumor diameter and body weight were measured on day 24 after grouping. The tumor weight (n=5) data were analyzed using GraphPad Prism 9.2.0. One-way ANOVA and Tukey multiple comparisons test were used for statistical analysis. A significant difference was assumed when p**≤0.01.

| ability of binding to activated Tregs (activated Tregs) | heart weight [3] | Compound | CD39^hiCD4+FoxP3+ Tregs and effector Tregs (Fr. II) [1] | growth of human malignant melanoma A375 [2] |
| --- | --- | --- | --- | --- |
| not strong | – | mogamulizumab | significant loss of only effector Tregs (Fr. II) | – |
| not strong | – | ipilimumab | significant loss of only effector Tregs (Fr. II) | no inhibitory effect |
| – | decreased | COc1cccc2c1C(=O)c1c(O)c3c(c(O)c1C2=O)C[C@@](O)(C(=O)CO)C[C@@H]3O[C@H]1C[C@H](N)[C@H](O)[C@H](C)O1 [doxorubicin] | – | – |
